Measurements from patent US9718781B2, “Methods and compounds for treating proliferative disorders and viral infections” (University College Dublin, National University of Ireland, …, priority 2012, dated 2017).
“And” between values parts separate entries of the source, which are not always exact repeats. Equal entries are not always repeated. Where two headings read alike, the source gives them in different places.

What was measured:
TPβ = biological target: T1, TPβ (Homo sapiens, UniProt P21731); assay: U46619-induced [Ca2+]i mobilization in HEK.TPβ cells; format: cell-based; conditions: HEK.TPβ cells; 1 μM U46619; Table 2; read-out: IC50 data for U46619-mediated [Ca2+]i mobilization, TPβ
T1 construct: expressed in transfected cells
T1 sequence (P21731 1-407 isoform P21731-2): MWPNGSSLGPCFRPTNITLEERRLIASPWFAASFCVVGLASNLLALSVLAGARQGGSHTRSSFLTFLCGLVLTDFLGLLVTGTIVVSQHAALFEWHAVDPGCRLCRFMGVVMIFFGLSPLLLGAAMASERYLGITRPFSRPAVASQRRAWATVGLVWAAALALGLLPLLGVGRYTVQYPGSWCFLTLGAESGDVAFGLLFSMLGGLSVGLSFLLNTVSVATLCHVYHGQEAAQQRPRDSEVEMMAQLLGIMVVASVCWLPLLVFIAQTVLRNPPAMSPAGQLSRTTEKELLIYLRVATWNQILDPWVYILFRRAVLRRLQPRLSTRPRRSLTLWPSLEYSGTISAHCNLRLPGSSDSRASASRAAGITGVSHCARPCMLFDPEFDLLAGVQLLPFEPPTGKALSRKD
Description: (§1) An appropriate functional test for the evaluation of the agonistic and/or antagonistic potency of the compounds of the invention is the determination of calcium flux. Both TPα and TPβ are coupled to the G-protein Gαq. Therefore, stimulation of these receptors ultimately leads to a release of intracellular calcium ([Ca^2+]i) from intracellular stores. Consequently, the determination of [Ca^2+]i flux represents an appropriate functional test for the evaluation of the agonistic/antagonistic potency of compounds of the invention. Calcium can be measured using a molecule characterized by the covalent combination of a Ca^2+ chelating group and a fluorophore group. The Ca^2+ binding properties of these indicators are formed by the presence of a tetracarboxylic acid core as found for example in EGTA (Ethylene Glycol bis(2-aminoethyl)Tetraacetic Acid). Binding of Ca^2+ produces a wavelength shift in either the excitation or emission fluorescence spectra or a change in the emission intensity. Whereas the Ca^2+ binding to EGTA is pH dependent, recent dyes are designed from an EGTA derivative, BAPTA (1,2-Bis(2-Aminophenoxy)ethane-N,N,N′,N′-Tetraacetic Acid). Loading of these dyes inside cells commonly uses esterified forms (acetoxymethyl ester), which are able to cross the cell membranes and are subsequently hydrolyzed by esterases inside the cell.
(§2) Estimation of [Ca^2+]i flux is calculated from the fluorescence signal (F). For calibration, the maximal fluorescence (Fmax, Ca^2+-saturated form of the dye) as well as minimal fluorescence (Fmin, Ca^2+-free form of the dye) must be determined. These parameters are determined usually in situ after the experiment, for example by subsequent addition to the mixture of a cell-disrupting agent that releases all Ca^2+ such as Triton X100 and a potent Ca^2+-chelating agent such as EGTA. After subtraction of background fluorescence, [Ca^2+]; flux can be calculated for non-ratiometric indicators.
(§3) Intracellular [Ca^2+]; fluxes were measured using a fluorescence plate reader following a modified protocol of Kassack et al., ‘Quantitative comparison of functional screening by measuring intracellular Ca^2+ with radioligand binding at recombinant human dopamine receptors’, AAPS Pharmsci, 2002, 4(4); 102-111, in cell lines (e.g. HEK293 or other cell type) endogenously-expressing or over-expressing either TPα, TPβ or any other receptor or protein to be screened.
(§4) By way of example, HEK 293 cells which have been grown for 3-4 days in normal growth media (minimum essential media containing 10% FBS and 2 mmol/1 L-glutamine), under normal growth conditions (37° C., in humidified 5% CO2 atmosphere) are washed and harvested in KREBs-HEPES buffer (118 mM NaCl, 4.7 mM KCl, 1.2 mM MgSO4, 1.2 mM KH2PO4, 4.2 mM NaHCO3, 11.7 mM D-glucose, 1.3 mM CaCl2, 10 mM HEPES, pH 7.4). Cells are then incubated with 3 μM Fluo-4 in KREBs-HEPES buffer containing 1% Pluoronic F-127, for 1 hr at 25° C. with agitation. Then, cells are washed in KREBs-HEPES buffer containing 0.5% BSA and re-suspended at a final concentration of 3×10^5 cells/ml. Approx. 5.4×10^4 cells per well are plated in a 96-well plate and pre-incubated with test compounds for 10 m prior to measuring the fluorescence intensity at 520 nm for 25 seconds at 1 s intervals to monitor baseline using the Fluoroskan Ascent. Agonist (e.g., 1 μM U46619) is injected into separate wells by the automatic pipettor and fluorescence intensity is monitored at 520 nm for 75 seconds at 1 s intervals. Thereafter, Triton X100 and EGTA are added sequentially where Fmax refers to maximal fluorescence intensity measured after permeabilization of the cells with 2% Triton X100 and Fmin refers to fluorescence intensity measured after addition of 1 mM EGTA.
(§5) The dye Fluo-4 has its excitation peak at 480 nm, in the visible spectra, which spare cells to be damaged by UV (340-360 nm) stimulation and reduces auto-fluorescence of cells. […]

TPα = biological target: T2, TPα (Homo sapiens, UniProt P21731); assay: U46619-induced [Ca2+]i mobilization in HEK.TPα cells; format: cell-based; conditions: for IC50: HEK.TPα cells, 1 μM U46619, Table 2, read-out: IC50 data for U46619-mediated [Ca2+]i mobilization, TPα; for TPα:TPβ Selectivity Ratio: IC50 TPα/IC50 TPβ
T2 construct: expressed in transfected cells
T2 sequence (P21731 1-343): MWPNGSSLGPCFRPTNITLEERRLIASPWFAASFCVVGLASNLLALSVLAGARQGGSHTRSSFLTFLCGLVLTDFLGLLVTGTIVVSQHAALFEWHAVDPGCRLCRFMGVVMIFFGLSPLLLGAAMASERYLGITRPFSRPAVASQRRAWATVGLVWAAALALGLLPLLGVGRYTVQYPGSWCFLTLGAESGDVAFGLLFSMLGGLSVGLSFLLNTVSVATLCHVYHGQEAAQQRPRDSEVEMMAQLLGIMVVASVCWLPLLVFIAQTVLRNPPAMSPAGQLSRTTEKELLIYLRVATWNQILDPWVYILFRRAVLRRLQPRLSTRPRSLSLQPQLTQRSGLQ
Description: as §1, §2, §3, §4, §5

human platelets [1] = assay: U46619-induced human platelet aggregation ex vivo (platelet rich plasma); format: cell-based; conditions: human platelets ex vivo, Table 3, read-out: IC50 data for inhibition of U46619-induced platelet aggregation
Description: A modification of the turbidimetric method originally developed by Born & Cross (Born, G. V. and Cross, M. J., The Aggregation of Blood Platelets, J Physiol, 1963, 168:178-95) is used. The principle is based on the diffraction of the light by particles. When a light beam passes through a suspension of particles, it is diffracted, depending on the number and the size of the particles in suspension.
In the Born & Cross method, a light beam passes through a platelet suspension and the quantity of light is measured by a detector placed after the sample. Upon platelet aggregation, the size of platelet aggregates will increase while the total number of free platelets will decrease. Consequently, less light will be diffracted and the detector will record an increase in light intensity. The aggregometer has been developed based on these concepts. Variations in light transmission recorded by this device reflects the platelet physiology. When an agonist of platelet aggregation is added to a platelet suspension, platelets undergo activation and shape change. This step is characterized by an increase in platelet's apparent volume and thus a decrease of transmitted light. Subsequent platelet aggregation gradually forms aggregates of increasing size. Transmitted light slightly increases until a plateau is reached. The aggregation of platelet can be confirmed after the experiment by visual direct inspection of the test tube.
Preparation of platelet suspension is achieved by blood centrifugation at 160 g for 10 minutes. The PRP is re-centrifuged at 160 g for 10 min to remove contaminating red and white blood cells. The supernatant which is collected contains the platelets rich plasma (PRP). The remaining blood is subsequently centrifuged at 900 g for 15 min in order to retrieve plasma (platelets poor plasma, PPP). PRP is diluted with PPP to reach a final concentration of 150×10^3 […] PRP is kept warmed at 37° C. in the aggregometer and the adequate dilution of drug to test is introduced in the sample. Platelet aggregation is induced after 10 minutes incubation. Light transmission (T) is measured throughout the experiment, which is ended 8 minutes after induction of aggregation. Maximal light transmission (Tmax) is determined in the sample without drugs. Minimal light transmission (Tmin) is measured in PRP without inducer.
The effect of NTP4 and the previously identified lead TP antagonist, TP20, on U46619-mediated platelet aggregation in side-by-side comparisons was performed in platelet rich plasma (PRP) using the PAP-8E platelet aggregometer.
FIG. 4A-4C show the effect of TP20 & NTP4 on U46619-mediated platelet aggregation. PRP was prepared from blood taken from healthy volunteers into syringes containing 3.8% sodium citrate and 10 μM indomethacin such that the final ratio of anticoagulant to blood was 1:9. Aliquots of PRP (300 μl) were pre-incubated for 10 min with the TP antagonists, TP20 and NTP4, where 2-fold serial dilutions from 1 μM were prepared for each, prior to stimulating platelets with 1 μM U46619, incubated at 37° C., with stirring. FIG. 4A and FIG. 4B: Representative dose-response platelet aggregation profiles for TP20 (FIG. 4A) and NTP4 (FIG. 4B), where data is presented as Percentage Aggregation, as determined by changes in light transmission using the PAP-8E Platelet Aggregation Profiler as a function of time. FIG. 4C: The dose-response curves for platelet aggregation are presented as the mean (±S.E.M.) maximum Percentage Aggregation as a function of the log of the TP antagonist concentration. Data presented is representative of ≧6 independent experiments.

human platelets [2] = assay: Thrombin-induced platelet aggregation of human platelets ex vivo; format: cell-based
Description: (§6) The method of assessing platelet aggregation also allows evaluation of the effect of the compounds of the invention on platelet aggregation upon stimulation by other agonists, e.g., adenosine diphosphate (ADP) and thrombin.

human platelets [3] = assay: ADP-induced platelet aggregation of human platelets ex vivo; format: cell-based
Description: as §6

[4] = tested on: A/Puerto Rico/8/1934 (H1N1) influenza A virus; format: in vivo, BALB/c mice
[5] = lung, Day 4, Tamiflu 10 mg/kg, TP20 0.36 mg/kg
[6] = lung, Day 4, number of animals of 3

Compound: N-(tert-butylcarbamoyl)-2-(3-methoxyphenoxy)-5-nitrobenzenesulfonamide [Compound 9ag, reference compound]
- IC50 (TPβ): 379 nM
- IC50 (TPα): 1750 nM
- TPα:TPβ Selectivity Ratio (TPα): 4.5
- IC50 (human platelets [1]): 985 nM

Compound: COC(=O)c1ccc(-c2cccc(Oc3ccc([N+](=O)[O-])cc3S(=O)(=O)NC(=O)NC(C)(C)C)c2)cc1 [XLVI]
- effect on thrombin-induced platelet aggregation (human platelets [2]): did not affect
- IC50 (TPβ): 36.5 nM
- IC50 (TPα): 114 nM
- TPα:TPβ Selectivity Ratio (TPα): 3
- IC50 (human platelets [1]; Homo sapiens, Platelet): 4.12 nM
- effect on ADP-induced platelet aggregation (human platelets [3]): did not affect

Compound: Cc1ccc(-c2cccc(Oc3ccc([N+](=O)[O-])cc3S(=O)(=O)NC(=O)NC(C)(C)C)c2)cc1 [XLI]
- effect on thrombin-induced platelet aggregation (human platelets [2]): did not affect
- IC50 (TPβ): 16.5 nM
- IC50 (TPα): 106 nM
- TPα:TPβ Selectivity Ratio (TPα): 6.4
- IC50 (human platelets [1]; Homo sapiens, Platelet): 230 nM
- effect on ADP-induced platelet aggregation (human platelets [3]): did not affect

Compound: CC(C)(C)NC(=O)NS(=O)(=O)c1cc([N+](=O)[O-])ccc1Oc1cccc(-c2ccc(C(F)(F)F)cc2)c1 [XII]
- effect on thrombin-induced platelet aggregation (human platelets [2]): did not affect
- IC50 (TPβ): 86 nM
- IC50 (TPα): 89.8 nM
- TPα:TPβ Selectivity Ratio (TPα): 1
- IC50 (human platelets [1]; Homo sapiens, Platelet): 129 nM
- effect on ADP-induced platelet aggregation (human platelets [3]): did not affect

Compound: CCOC(=O)C1=C[C@@H](OC(CC)CC)[C@H](NC(C)=O)[C@@H](N)C1 [Tamiflu]
- survival over the study ([4]; Tamiflu 10 mg/kg, TP20 360 μg/kg, 14 days): survived the full duration
- Alveolar Acute Inflammation, number of animals with the finding ([4]; lung, Day 4, 3 animals): (1)
- Bronchiolar Erosion, number of animals with the finding ([4]; lung, Day 4, 3 animals): (3)
- Bronchiolar Exudate, number of animals with the finding ([4]; lung, Day 4, 3 animals): (3)
- Bronchiolar acute Inflammation, number of animals with the finding ([4]; lung, Day 4, 3 animals): (3)
- Vascular Necrosis, number of animals with the finding ([4]; lung, Day 4, 3 animals): (0)
- Extent of Perivascular Edema (Mean ± S.E.M.), Per Animal [4, 5]: 21.2 ± 1.71 (52) arbitrary units and 20.7 ± 1.21 (66) arbitrary units and 19.3 ± 1.24 (77) arbitrary units
- Extent of Perivascular Edema (Mean ± S.E.M.), Per Treatment Group [4, 5]: 20.6 ± 0.90 arbitrary units
- reduction in the perivascular edema compared to vehicle [4, 5]: does not reduce the extent of perivascular edema
- Alveolar Acute Inflammation, Minimal [4, 6]: 1
- Bronchiolar Erosion, Mild [4, 6]: 2
- Bronchiolar Erosion, Minimal [4, 6]: 0
- Bronchiolar Erosion, Moderate [4, 6]: 1
- Bronchiolar Exudate, Mild [4, 6]: 2
- Bronchiolar Exudate, Minimal [4, 6]: 1
- Bronchiolar Exudate, Moderate [4, 6]: 0
- Bronchiolar acute Inflammation, Mild [4, 6]: 3
- Bronchiolar acute Inflammation, Minimal [4, 6]: 0
- Perivascular Edema, Mild [4, 6]: 1
- Perivascular Edema, Minimal [4, 6]: 1
- Day of Minimum Body Weight Recorded, Mean (Mean Day to Recovery) ([4]; mouse, in vivo): 8.4
- Day of Minimum Body Weight Recorded, per animal ([4]; mouse, in vivo): 9 (7×) and 7 (3×)
- Perivascular Edema, number of animals with the finding ([4]; mouse, in vivo): (2)
- Weight @ Day 0 ([4]; n = 10/group): 17.56 ± 0.18
- Weight @ Day 14 ([4]; n = 10/group): 17.4 ± 0.32

Compound: COc1cccc(Oc2ccc([N+](=O)[O-])cc2S(=O)(=O)NC(=O)NC(C)(C)C)c1 [Compound 9h, reference compound]
- IC50 (TPβ): 270 nM
- IC50 (TPα): 612 nM
- TPα:TPβ Selectivity Ratio (TPα): 2.3
- IC50 (human platelets [1]; Homo sapiens, Platelet): 513 nM

Compound: O=C(O)CCC/C=C\CC1C2CCC(O2)C1CNNC(=O)Nc1ccccc1 (stereo not shown) [SQ29,548, reference compound]
- IC50 (human platelets [1]; Homo sapiens, Platelet): 8.33 nM

Compound: CC(=O)c1ccc(-c2cccc(Oc3ccc([N+](=O)[O-])cc3S(=O)(=O)NC(=O)NC(C)(C)C)c2)cc1 [XLV]
- effect on thrombin-induced platelet aggregation (human platelets [2]): did not affect
- IC50 (TPβ): 33.7 nM
- IC50 (TPα): 186 nM
- TPα:TPβ Selectivity Ratio (TPα): 5.5
- IC50 (human platelets [1]; Homo sapiens, Platelet): 159 nM
- effect on ADP-induced platelet aggregation (human platelets [3]): did not affect
